Laboratory results published in patent publication US20210070748A1, “INHIBITORS OF BRUTONS TYROSINE KINASE” (Pharmacyclics LLC, priority 2015, published 2021).
Where two headings read alike, the source gives them in different places.

How the values were obtained:
Format in all cases: biochemical
JAK3 = biological target: T1, JAK3 (Homo sapiens, UniProt P52333); assay: Inhibition of a panel of kinases, in vitro HotSpot kinase assay: JAK3; conditions: for IC50: 1 μM ATP, read-out: IC50 JAK3; for JAK3* IC50 relative to Btk IC50 value: fold relative to Btk IC50 value
T1 sequence (P52333 1-1124): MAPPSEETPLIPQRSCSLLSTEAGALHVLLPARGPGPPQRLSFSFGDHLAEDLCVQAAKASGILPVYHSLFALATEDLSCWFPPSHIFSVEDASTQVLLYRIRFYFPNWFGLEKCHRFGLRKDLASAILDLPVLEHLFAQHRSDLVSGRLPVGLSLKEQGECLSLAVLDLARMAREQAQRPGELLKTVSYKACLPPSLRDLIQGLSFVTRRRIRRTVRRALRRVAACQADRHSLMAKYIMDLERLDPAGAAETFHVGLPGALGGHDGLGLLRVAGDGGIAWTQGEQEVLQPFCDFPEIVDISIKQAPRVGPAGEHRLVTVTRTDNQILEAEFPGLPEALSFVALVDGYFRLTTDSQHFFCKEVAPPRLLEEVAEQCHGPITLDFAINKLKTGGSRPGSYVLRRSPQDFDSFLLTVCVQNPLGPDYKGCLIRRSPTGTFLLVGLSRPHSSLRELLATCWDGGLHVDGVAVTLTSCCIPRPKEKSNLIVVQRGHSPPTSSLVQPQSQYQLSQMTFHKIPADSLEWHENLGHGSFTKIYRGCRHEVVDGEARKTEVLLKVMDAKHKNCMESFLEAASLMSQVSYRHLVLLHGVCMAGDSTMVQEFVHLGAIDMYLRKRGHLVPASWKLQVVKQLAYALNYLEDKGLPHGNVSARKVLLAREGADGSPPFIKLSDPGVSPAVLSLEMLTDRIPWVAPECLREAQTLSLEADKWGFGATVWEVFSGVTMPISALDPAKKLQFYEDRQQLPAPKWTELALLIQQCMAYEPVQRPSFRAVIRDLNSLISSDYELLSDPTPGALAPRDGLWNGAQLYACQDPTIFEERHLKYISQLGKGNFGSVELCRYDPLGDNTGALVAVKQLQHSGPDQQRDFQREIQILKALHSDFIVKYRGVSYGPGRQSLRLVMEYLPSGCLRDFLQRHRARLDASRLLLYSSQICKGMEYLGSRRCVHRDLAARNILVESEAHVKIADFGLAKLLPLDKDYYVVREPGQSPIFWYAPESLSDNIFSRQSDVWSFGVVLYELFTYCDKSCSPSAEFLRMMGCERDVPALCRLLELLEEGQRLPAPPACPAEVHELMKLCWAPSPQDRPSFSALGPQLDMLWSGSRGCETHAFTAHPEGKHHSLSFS

LCK = LCK (Homo sapiens, UniProt P06239); assay: Inhibition of a panel of kinases, in vitro HotSpot kinase assay: LCK; conditions: for IC50: 1 μM ATP, read-out: IC50 LCK; for LCK* IC50 relative to Btk IC50 value: fold relative to Btk IC50 value
TEC = biological target: T2, TEC (Homo sapiens, UniProt P42680); assay: Inhibition of a panel of kinases, in vitro HotSpot kinase assay: TEC; conditions: for IC50: 1 μM ATP; for TEC* IC50 relative to Btk IC50 value: fold relative to Btk IC50 value
T2 sequence (P42680 1-631): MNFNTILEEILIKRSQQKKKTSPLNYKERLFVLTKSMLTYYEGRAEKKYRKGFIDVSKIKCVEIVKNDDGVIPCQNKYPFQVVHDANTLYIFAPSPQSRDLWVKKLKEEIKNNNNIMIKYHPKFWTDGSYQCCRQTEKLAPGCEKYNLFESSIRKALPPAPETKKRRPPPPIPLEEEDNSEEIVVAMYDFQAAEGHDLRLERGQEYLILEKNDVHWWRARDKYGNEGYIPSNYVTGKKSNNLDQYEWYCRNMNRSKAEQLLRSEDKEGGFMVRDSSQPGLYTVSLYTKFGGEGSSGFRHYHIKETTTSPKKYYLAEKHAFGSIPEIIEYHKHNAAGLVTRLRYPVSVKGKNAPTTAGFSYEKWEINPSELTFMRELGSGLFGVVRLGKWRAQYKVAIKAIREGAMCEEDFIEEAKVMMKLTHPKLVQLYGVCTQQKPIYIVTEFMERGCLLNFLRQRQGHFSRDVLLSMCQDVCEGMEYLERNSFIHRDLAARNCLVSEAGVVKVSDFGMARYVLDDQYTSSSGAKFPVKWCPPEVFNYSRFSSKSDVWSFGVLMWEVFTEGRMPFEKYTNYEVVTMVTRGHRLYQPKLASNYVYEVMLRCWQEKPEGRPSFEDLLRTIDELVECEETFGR
Protocol: (§1) The degree of inhibition of a panel of kinases is determined using the in vitro HotSpot kinase assay (purified enzymes, ^33P-ATP, an appropriate substrate and 1 μM ATP).

TXK = biological target: T3, TXK (Homo sapiens, UniProt P42681); assay: Inhibition of a panel of kinases, in vitro HotSpot kinase assay: TXK; conditions: Table 15, C compounds; 1 μM ATP
T3 sequence (P42681 1-527): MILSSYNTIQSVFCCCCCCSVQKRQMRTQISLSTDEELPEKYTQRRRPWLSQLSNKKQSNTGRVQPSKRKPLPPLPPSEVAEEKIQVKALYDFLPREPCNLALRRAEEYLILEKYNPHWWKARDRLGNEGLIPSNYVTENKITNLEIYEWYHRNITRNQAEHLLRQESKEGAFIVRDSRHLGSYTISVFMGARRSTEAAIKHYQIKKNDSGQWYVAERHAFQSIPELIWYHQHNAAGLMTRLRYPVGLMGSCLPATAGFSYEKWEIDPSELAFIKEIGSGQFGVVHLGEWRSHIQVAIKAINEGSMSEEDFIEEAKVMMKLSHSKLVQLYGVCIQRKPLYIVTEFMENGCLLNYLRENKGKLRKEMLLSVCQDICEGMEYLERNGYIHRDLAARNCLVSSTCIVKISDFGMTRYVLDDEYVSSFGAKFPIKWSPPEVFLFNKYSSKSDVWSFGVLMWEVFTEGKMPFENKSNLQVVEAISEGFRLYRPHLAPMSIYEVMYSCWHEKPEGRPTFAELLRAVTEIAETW
Protocol: as §1

Sequence of LCK (P06239 whole entry): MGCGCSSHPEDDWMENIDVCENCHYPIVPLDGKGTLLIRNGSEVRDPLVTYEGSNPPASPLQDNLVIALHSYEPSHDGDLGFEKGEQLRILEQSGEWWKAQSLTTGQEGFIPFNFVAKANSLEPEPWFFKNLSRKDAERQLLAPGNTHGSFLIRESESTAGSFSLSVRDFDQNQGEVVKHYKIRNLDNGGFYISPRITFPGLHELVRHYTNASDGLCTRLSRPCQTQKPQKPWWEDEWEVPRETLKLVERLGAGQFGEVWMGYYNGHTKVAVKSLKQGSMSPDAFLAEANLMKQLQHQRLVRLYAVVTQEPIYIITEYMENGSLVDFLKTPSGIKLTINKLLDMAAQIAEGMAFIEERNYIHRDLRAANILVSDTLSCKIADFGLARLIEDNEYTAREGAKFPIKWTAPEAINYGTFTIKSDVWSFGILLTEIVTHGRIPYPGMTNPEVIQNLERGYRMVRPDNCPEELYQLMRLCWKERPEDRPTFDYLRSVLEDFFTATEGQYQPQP

| IC50 (JAK3; Table 13, A compounds) [nM] | IC50 (LCK; Table 13, A compounds) [nM] | IC50 (TEC; Table 13, A compounds) [nM] | JAK3* IC50 relative to Btk IC50 value (JAK3) [x] | LCK* IC50 relative to Btk IC50 value (LCK) [x] | TEC* IC50 relative to Btk IC50 value (TEC) [x] | SMILES | also measured |
| --- | --- | --- | --- | --- | --- | --- | --- |
| 1000 to 10000 | 100 to 1000 | 100 to 1000 |  |  |  | C[C@@H]1[C@H](NC(=O)N(C)C)CCCN1c1cnc(C(N)=O)c(Nc2ccc(C(=O)N3CCN(C)CC3)cc2)n1 [Example A-98, 5-[(2R,3R)-3-[(dimethylcarbamoyl)amino]-2-methylpiperidin-1-yl]-3-{[4-(4-methylpiperazine-1-carbonyl)phenyl]amino}pyrazine-2-carboxamide] |  |
| 1000 to 10000 | 100 to 1000 | 10 to 100 |  |  |  | CN1CCN(c2ccc(Nc3nc(N4CCC[C@@H](n5ccc6cc(C7CC7)ccc6c5=O)C4)cnc3C(N)=O)cc2)CC1 [Example A-99, 5-[(3R)-3-(6-cyclo-propyl-1-oxo-1,2-dihydroisoquinolin-2-yl)piperidin-1-yl]-3-{[4-(4-methylpiperazin-1-yl)phenyl]amino}pyrazine-2-carboxamide] |  |
| 100 to 1000 | 100 to 1000 | 100 to 1000 |  |  |  | C[C@@H]1[C@H](NC(=O)N(C)C)CCCN1c1cnc(C(N)=O)c(Nc2ccc(N3CCN(C)CC3)cc2)n1 [Example A-100, 5-[(2R,3R)-3-[(dimethylcarbamoyl)amino]-2-methylpiperidin-1-yl]-3-{[4-(4-methylpiperazin-1-yl)phenyl]amino}pyrazine-2-carboxamide] |  |
| > 10000 | 1000 to 10000 | 1000 to 10000 |  |  |  | Cc1c(Nc2nc(N3CCC[C@@H](NC(=O)c4ccc(C5CC5)cc4)[C@H]3C)cnc2C(N)=O)cnn1C [Example A-191, 5-((2R,3)R-3-(4-cyclopropylbenzamido)-2-methylpiperidin-1-yl)-3-(1,5-dimethyl-1H-pyrazol-4-ylamino)pyrazine-2-carboxamide] |  |
| > 10000 | > 10000 | 1000 to 10000 |  |  |  | Cc1nn(C)cc1Nc1nc(N2CCC[C@@H](NC(=O)c3ccc(C4CC4)cc3)[C@H]2C)cnc1C(N)=O [Example A-192, 5-((2R,3R)-3-(4-cyclopropylbenzamido)-2-methylpiperidin-1-yl)-3-(1,3-dimethyl-1H-pyrazol-4-ylamino)pyrazine-2-carboxamide] |  |
| 100 to 1000 | 100 to 1000 | 10 to 100 |  |  |  | C[C@@H]1[C@H](NC(=O)c2cc3c(n2C)CC(C)(C)C3)CCCN1c1cnc(C(N)=O)c(Nc2cnn(C)c2)n1 [Example A-193, N-((2R,3R)-1-(5-carbamoyl-6-(1-methyl-1H-pyrazol-4-ylamino)pyrazin-2-yl)-2-methylpiperidin-3-yl)-1,5,5-trimethyl-1,4,5,6-tetrahydrocyclo-penta[b]pyrrole-2-carboxamide] |  |
|  |  |  | 1276 | 112 | 3 | C[C@@H]1[C@H](NC(=O)c2ccc(C3CC3)cc2)CCCN1c1cnc(C(N)=O)c(Nc2cnn(C(F)F)c2)n1 [Example A-198, 5-[(2R,3R)-3-(4-cyclopropylbenzamido)-2-methylpiperidin-1-yl]-3-{[1-(difluoromethyl)-1H-pyrazol-4-yl]amino}pyrazine-2-carboxamide] |  |
|  |  |  | 411 | 88 | 3 | C[C@@H]1[C@H](NC(=O)c2ccc(C(C)(C)O)cc2)CCCN1c1cnc(C(N)=O)c(Nc2cnn(C)c2)n1 [Example A-200, 5-((2R,3R)-3-(4-(2-hydroxypropan-2-yl)benzamido)-2-methyl-piperidin-1-yl)-3-(1-methyl-1H-pyrazol-4-yl-amino)pyrazine-2-carboxamide] |  |
|  |  |  | 1102 | 49 | 8 | C[C@@H]1[C@H](NC(=O)c2ccc(C3CC3)cc2)CCCN1c1nnc(C(N)=O)c(Nc2cnn(C)c2)n1 [Example A-201, 3-[(2R,3R)-3-(4-cyclopropylbenzamido)-2-methylpiperidin-1-yl]-5-[(1-methyl-1H-pyrazol-4-yl)amino]-1,2,4-triazine-6-carboxamide] |  |
|  |  |  | 631 | 107 | 5 | Cn1cc(Nc2nc(N3CCC[C@@H](NC(=O)c4ccc(C5CC5)cc4)C3)nnc2C(N)=O)cn1 [Example A-202, 3-[(3R)-3-(4-cyclopropylbenzamido)piper-idin-1-yl]-5-[(1-methyl-1H-pyrazol-4-yl)amino]-1,2,4-triazine-6-carboxamide] |  |
|  |  |  | 7353 | 684 | 8 | C[C@@H]1[C@H](NC(=O)c2ccc(C(C)(C)C)cc2)CCCN1c1cnc(C(N)=O)c(Nc2cnn(C)c2)n1 [Example A-203, 5-((2R,3R)-3-(4-tert-butylbenzamido)-2-methylpiperidin-1-yl)-3-(1-methyl-1H-pyrazol-4-ylamino)pyrazine-2-carboxamide] |  |
|  |  |  | 4032 | 102 | 3 | C[C@@H]1[C@H](NC(=O)c2ccc(C3CC3)cc2)CCCN1c1cnc(C(N)=O)c(Nc2cnn(C3CC3)c2)n1 [Example A-205, 3-[(1-cyclopropyl-1H-pyrazol-4-yl)amino]-5-[(2R,3R)-3-(4-cyclopropylbenzamido)-2-methylpiperidin-1-yl]pyrazine-2-carboxamide] |  |
|  |  |  | 341 | 63 | 1 | C[C@@H]1[C@H](NC(=O)c2ccc(C3COC3)cc2)CCCN1c1cnc(C(N)=O)c(Nc2cnn(C)c2)n1 [Example A-206, 3-(1-methyl-1H-pyrazol-4-ylamino)-5-((2R,3R)-2-methyl-3-(4-(oxetan-3-yl)benzamido)piperidin-1-yl)pyrazine-2-carboxamide] |  |
|  |  |  |  |  |  | C=CC(=O)N1CCC[C@@H](Nc2nnc(C(N)=O)c(Nc3ccc(C(C)(C)C)cc3)n2)C1 [Example C-40, (R)-3-(1-acryloylpiperidin-3-ylamino)-5-(4-tert-butylphenylamino)-1,2,4-triazine-6-carboxamide] | IC50 (JAK3; Table 15, C compounds): < 10 nM; IC50 (LCK; Table 15, C compounds): 100 to 1000 nM; IC50 (TEC; Table 15, C compounds): ≤ 10 nM; IC50 (TXK): ≤ 10 nM |
